The source of these data is article PMC3780409 (Methods in molecular biology (Clifton, N.J.), 2011).

Entries after “also recorded” stand apart in the source; their conditions may differ. Read-outs that look alike come from different tables or passages of the source.

For series [1], the system named is breast MCF-7 cells and melanoma SK-Mel2 cells. The note with it: inhibition of growth, cell line not specified (MCF-7 and SK-Mel2 tested); cited from earlier work.
Series [2] deals with PAR1. The note with it: selectivity for PAR4; cited from earlier work.
For series [3], the system named is PAR4. The note with it: guinea pigs, cited from earlier work.
For series [4], the system named is PAR4. The note with it: cited from earlier work.
In series [5] the test system is PAR4. The note with it: thrombin-preactivated human platelets; cited from earlier work.
Series [6] deals with PAR4. The note with it: cited from earlier work. The source holds these as a separate data set.
The test system of the next series is CXCR1/2. The note with it: sepsis, SIRS, DIC, septic mice; cited from earlier work.
Series [7] relates to PAR1. As to conditions: cited from earlier work; for Outcome: sepsis, SIRS, DIC, mice.
The conditions of series [8]: mouse, in vivo.
For a further series, the system named is human neutrophils. The note with it: cited from earlier work.
Series [9] concerns PAR4. The note with it: mice, induced by AYPGKF plus epinephrine; cited from earlier work.
In series [10] the test system is PAR1. As to conditions: at higher concentrations; cited from earlier work.
Series [11] relates to PAR4. The note with it: sepsis, SIRS, DIC, mice; cited from earlier work.
Series [12] concerns PAR4. The note with it: Inflammation/paw edema, carrageenan, mice; cited from earlier work.
Series [13] relates to PAR4. As to conditions: wire injury to the carotid artery of mice, fluorescent platelets; cited from earlier work.
For series [14], the system named is PAR4. As to conditions: cited from earlier work. The source holds these as a separate data set.
Series [15] deals with PAR4. As to conditions: cited from earlier work. The source holds these as a separate data set.
The test system of series [16] is PAR4. The note with it: cited from earlier work. This is another data set of the same source.
Series [17] has as its system PAR4. The note with it: PAR4 agonist in mouse knee joint; cited from earlier work.
Series [18] has as its system thromboxane, ADP, collagen, or GPIb/IX/V receptors. The note with it: cited from earlier work.
Series [19] relates to PAR1. The note with it: rat aortic rings, vascular tissue preparations; cited from earlier work.

Take Pal-LTYAWHTSFK [SMO-i2-12]: the IC50 in [1] is 60 nM.
As to “N-pal-ATGAPRLPST-NH2 [Pepducin P4pal-i1]”, the “effect on PAR1-induced platelet aggregation” value in the series with PAR1 [2] was “without affecting”. For the same substance, the “decrease of arterial occlusion” value with PAR4 [3] (carotid injury model, single agent) is listed as “approximately 50%”. In addition, the “Outcome (arterial occlusion)” value in the series on PAR4 [3] (when combined with bivalirudin or P1pal-7) is recorded as “Inhibition of arterial occlusion in guinea pigs, when combined with bivalirudin or P1pal-7”. The “arterial thrombosis, combined with bivalirudin” value in the series on PAR4 [3] is “suppression of arterial thrombosis in guinea pigs to a much higher degree than bivalirudin alone”. Besides, the “human platelet aggregation, combined with bivalirudin” value in the series on PAR4 [4] is reported as “significant inhibition of human platelet aggregation”. The “Outcome (epinephrine-induced Ca2+ flux and aggregation)” value in the series with PAR4 [5] is recorded as “inhibited; also recorded: Inhibition of epinephrine-induced Ca^2+ flux”.
In the case of “N-pal-RLAHGYRRGS-NH2 [Rev-P4pal-10, reference compound]”, in the series on PAR4 [6] (reverse-sequence control), the “Target (activity class)” value was “Inactive”.
On to N-pal-RTLFKAHMGQKHRAMR-NH2 [x1/2pal-i3], for which the Outcome result in the series with CXCR1/2 was “CXCR1/2 pepducins reduced organ damage, inhibited neutrophil migration, improved survival, and inhibited DIC”.
On to “N-pal-RSLSSSAVANRS-NH2 [Pepducin P1pal-12S]”, for which, in the series on PAR1 [7], the Outcome result is “Temporally modulated survival, vascular leakage, and DIC”. Moreover, in the series with PAR1 [7] (septic mice), the “survival and DIC, treatment at early time points” value is “improved survival and prevented DIC”; the “survival and DIC, treatment at late time points (antagonist)” value is on record as “but not late time points”.
For the substance pal-CGRRYGHALR [[^14C]-P4pal-10C], in series [8], the “increase of radioactivity in urine” value is reported as “fivefold”. In addition, the radioactivity in urine entry in [8] is recorded as “detected”. In addition, the “tissues in which radioactivity appeared” value in series [8] (iv, 1.4 mg/kg) is “liver, kidney, lungs, and spleen, and lesser amounts to other tissues”; in series [8] (iv, 14 mg/kg), “kidney, lungs, liver, and spleen with lesser radioactivity appearing in the heart, blood, muscle, and fat, but not the brain”; in [8] (sc, 1 mg/kg) it was “liver, kidney, lungs, and blood”; in series [8] (sc, 10 mg/kg) it was “fairly even distribution of radioactivity to the kidney, liver, spleen, blood, heart, and lungs, with lesser amounts to muscle and fat, but not to brain”.
Take “N-pal-SGRRYGHALR-NH2 [Pepducin P4pal-10]”: in the series with human neutrophils, the “migration of human neutrophils to IP-10, SDF-1α, and S1P” value is reported as “no effect”; the “migration of human neutrophils to thrombin” value was “completely blocked”. Also, the systemic thrombus formation result in the series with PAR4 [9] was “protected against systemic thrombus formation”. The “block of PAR1 activation” value in the series on PAR1 [10] was “partially block”. In addition, the Outcome result in the series on PAR4 [11] was “protected against systemic inflammation and DIC; also recorded: Reduced organ damage and inflammatory mediators, inhibited neutrophil migration”. Also, in the series on PAR4 [6], the “AYPGKF (PAR4 agonist)-induced aggregation” value was “completely blocked” and the “human platelet aggregation to PAR4 agonists” value is reported as “inhibited”. The Outcome entry with PAR4 [12] is “Reduced edema and granulocyte recruitment induced by carrageenan”. The “Outcome (platelet accumulation)” value in the series on PAR4 [13] is given as “significant delay in accumulation; also recorded: Delayed platelet accumulation”. For the same substance, the “Outcome (infarct size)” value in the series with PAR4 [14] (ischemia/reperfusion in rats) is recorded as “Reduced infarct size in ischemia/reperfusion in rats”. Moreover, in the series with PAR4 [14] (rats, intravenous bolus of 10 μg/kg, I/R injury model), the “reduction of myocardium infarct size” value is on record as “approximately 20%”. For the same substance, the “Outcome (tail bleeding time)” value with PAR4 [15] (mice infused with pepducin) was “prolonged tail-bleeding times and unstable thrombi formation; also recorded: Prolonged tail bleeding time in mice”. Moreover, in the series on PAR4 [15] (mice, intravenous injection, 4 h point), the “extension of bleeding time” value is “approximately twofold”. Moreover, the bleeding time result in the series with PAR4 [15] (mice, intravenous injection, 24 h time point) is given as “returned to baseline”. In the series with PAR4 [15] (mice, intravenous injection, after 5 min, maintained for 1 h), the “increase in bleeding time” value is given as “threefold to fivefold”. Moreover, the “prolongation of bleeding time” value in the series on PAR4 [15] (mice, subcutaneous injection of 3 mg/kg, 4 h after injection) is on record as “sixfold”. Besides, in the series with PAR4 [15] (mice, subcutaneous injection of 3 mg/kg), the PD half-life result is given as “approximately 14 h”. For the same substance, the “Outcome (thrombin generation)” value in the series on PAR4 [16] is recorded as “delayed the generation of thrombin”. In the series with PAR4 [17], the “Outcome (joint inflammation)” value was “block the proinflammatory and pronociceptive effects of a PAR4 agonist in the mouse knee joint and alleviate acute joint inflammation; also recorded: Reduced agonist induced joint vascular conductance and edema”. The “effect on ADP, thromboxane, and GPIb/IX/V receptors” value in series [18] is “did not affect”.
Regarding N-LCA-YSRVGRSVTD-NH2 [x1/2LCA-i1], the Outcome result in the series with CXCR1/2 is “CXCR1/2 pepducins reduced organ damage, inhibited neutrophil migration, improved survival, and inhibited DIC”.
With “N-pal-AVANRSKKSRALF-NH2 [Pepducin P1pal-13]”, the Outcome entry with PAR1 [7] was “Temporally modulated survival, vascular leakage, and DIC”. In addition, in the series on PAR1 [7] (septic mice, by inhibiting leakage of endothelial cell tight junctions), the “survival and DIC, treatment at late time points (agonist)” value is “improved survival and prevented DIC”.
Consider “N-pal-RCLSSSAVANRSKKSRALF-NH2 [Pepducin P1pal-19]”, for which the “Outcome (agonist activity: Ca2+ signal, relaxation, prostaglandin E2 release)” value in the series with PAR1 [19] was “promote Ca^2+ signals, prostaglandin E2 release, and persistent relaxation of rat aortic rings in a concentration-dependent manner; also recorded: Promotes Ca^2+ signal, relaxation of rat aortic rings, and prostaglandin E2 release”.

The term IC50 denotes the point on the concentration scale where inhibition reaches its midpoint.
